How the values were obtained:
[1] = tested on: Erysiphe graminis f. sp. hordei; experiment: Erysiphe-Test (barley)/induction of resistance; assay type: in vivo, Erysiphe graminis f. sp. hordei on barley; conditions: barley plants sprayed at 750 g/ha; inoculated 4 days after treatment; evaluated 7 days after inoculation; 0% = as control, 100% = no infection
Procedure: Erysiphe-Test (Barley)/Induction of Resistance
To produce a suitable preparation of active compound, 1 part by weight of active compound is mixed with the stated amounts of solvent and emulsifier, and the concentrate is diluted with water to the desired concentration.
To test for resistance-inducing activity, young cereal plants are sprayed with the preparation of active compound at the stated application rate. 4 days after the treatment, the plants are inoculated with spores of Erysiphe graminis f. sp. hordei. The plants are then placed in the greenhouse at 70% relative atmospheric humidity and a temperature of 18 C.
Evaluation is carried out 7 days after the inoculation. 0% means an efficacy which corresponds to that of the control, whereas an efficacy of 100% means that no infection is observed.

| melting point | Compound | Efficacy in % [1] |
| --- | --- | --- |
|  | CC/C(=N\C#N)NCc1cc(Cl)nc(Cl)c1 | 80% |
|  | C/C(=N\C#N)NCc1cc(Cl)nc(Cl)c1 | 95% |
| 160 °C | N#C/N=C/NCc1cc(Cl)nc(Cl)c1 [Example 1, N′-cyano-N-[(2,6-dichloro-4-pyridinyl)methyl]imidoformamide] |  |
|  | N#C/N=C/NCc1cc(Cl)nc(Cl)c1 [drawing 9] | 100% |

From patent publication US20050049285A1, “Dichloropyridyl methyl cyanamidines” (priority 2000, published 2005)
